Assay results published in the supplement of paper PMC10307832.

Legend:
Assay in all cases: relative viability (nuclei count vs DMSO), 5 days (fraction); higher = more cells survive
ChaGo-K-1 = test system: ChaGo-K-1
In short: (§1)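 Relative viability is defined as nuclei in treated wells over nuclei in vehicle wells. Duplicate plates were run and medians reported. Lung cancer cell lines in 1536-well plates were dosed by pin tool one day after seeding, with one drug or with a fixed anchor-drug dose plus five library-drug doses (not always all listed) in √10 steps, and nuclei were counted after 5 days.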

EMC-BAC-2 = test system: EMC-BAC-2
In short: as §1

EPLC-272H = test system: EPLC-272H
In short: as §1

HCC-78 = test system: HCC-78
In short: as §1

HCC-827 = test system: HCC-827
In short: as §1

LCLC-103H = test system: LCLC-103H
In short: as §1

LK-2 = test system: LK-2
In short: as §1

LOU-NH91 = test system: LOU-NH91
In short: as §1

LU99A = test system: LU99A
In short: as §1

LXF-289 = test system: LXF-289
In short: as §1

NCI-H1666 = test system: NCI-H1666
In short: as §1

NCI-H1975 = test system: NCI-H1975
In short: as §1

NCI-H2085 = test system: NCI-H2085
In short: as §1

NCI-H2126 = test system: NCI-H2126
In short: as §1

NCI-H23 = test system: NCI-H23
In short: as §1

NCI-H2405 = test system: NCI-H2405
In short: as §1

NCI-H3122 = test system: NCI-H3122
In short: as §1

NCI-H322M = test system: NCI-H322M
In short: as §1

RERF-LC-KJ = test system: RERF-LC-KJ
In short: as §1

SK-LU-1 = test system: SK-LU-1
In short: as §1

SW 1573 = test system: SW 1573
In short: as §1

SW 900 = test system: SW 900
In short: as §1

`NC(=O)Nc1cc(-c2cccc(F)c2)sc1C(=O)N[C@H]1CCCNC1` [AZD7762] + Nc1ncn([C@H]2C[C@H](O)[C@@H](CO)O2)c(=O)n1 [Decitabine] (partner 2 µM) showed a relative viability (ChaGo-K-1; first compound 0.01 µM) of 0.52, a relative viability (ChaGo-K-1; first compound 0.03162 µM) of 0.553 and a relative viability (ChaGo-K-1; first compound 0.1 µM) of 0.565. It also gave a relative viability (ChaGo-K-1; first compound 0.3162 µM) of 0.555, a relative viability (ChaGo-K-1; first compound 1 µM) of 0.597 and a relative viability (EMC-BAC-2; first compound 0.01 µM) of 1.03. It also gave a relative viability (EMC-BAC-2; first compound 0.03162 µM) of 1.01, a relative viability (EMC-BAC-2; first compound 0.1 µM) of 1.09 and a relative viability (EMC-BAC-2; first compound 0.3162 µM) of 1.13. The relative viability (EMC-BAC-2; first compound 1 µM) was 0.933, the relative viability (EPLC-272H; first compound 0.01 µM) was 0.352 and the relative viability (EPLC-272H; first compound 0.03162 µM) was 0.445. It also gave a relative viability (EPLC-272H; first compound 0.1 µM) of 0.356, a relative viability (EPLC-272H; first compound 0.3162 µM) of 0.421 and a relative viability (EPLC-272H; first compound 1 µM) of 0.239. For the same compound, the relative viability (HCC-78; first compound 0.01 µM) was 0.707, the relative viability (HCC-78; first compound 0.03162 µM) was 0.901 and the relative viability (HCC-78; first compound 0.1 µM) was 0.824. For the same compound, the relative viability (HCC-78; first compound 0.3162 µM) was 0.904, the relative viability (HCC-78; first compound 1 µM) was 0.622 and the relative viability (HCC-827; first compound 0.01 µM) was 0.312. The relative viability (HCC-827; first compound 0.03162 µM) was 0.428, the relative viability (HCC-827; first compound 0.1 µM) was 0.362 and the relative viability (HCC-827; first compound 0.3162 µM) was 0.338. It also gave a relative viability (HCC-827; first compound 1 µM) of 0.233, a relative viability (LCLC-103H; first compound 0.01 µM) of 0.766 and a relative viability (LCLC-103H; first compound 0.03162 µM) of 0.824. The relative viability (LCLC-103H; first compound 0.1 µM) was 0.764, the relative viability (LCLC-103H; first compound 0.3162 µM) was 0.725 and the relative viability (LCLC-103H; first compound 1 µM) was 0.829. For the same compound, the relative viability (LK-2; first compound 0.01 µM) was 0.476, the relative viability (LK-2; first compound 0.03162 µM) was 0.479 and the relative viability (LK-2; first compound 0.1 µM) was 0.346. For the same compound, the relative viability (LK-2; first compound 0.3162 µM) was 0.346, the relative viability (LK-2; first compound 1 µM) was 0.25 and the relative viability (LOU-NH91; first compound 0.01 µM) was 0.823. It also gave a relative viability (LOU-NH91; first compound 0.03162 µM) of 0.796, a relative viability (LOU-NH91; first compound 0.1 µM) of 0.816 and a relative viability (LOU-NH91; first compound 0.3162 µM) of 0.761. The relative viability (LOU-NH91; first compound 1 µM) was 0.673, the relative viability (LU99A; first compound 0.01 µM) was 0.863 and the relative viability (LU99A; first compound 0.03162 µM) was 0.911. For the same compound, the relative viability (LU99A; first compound 0.1 µM) was 0.941, the relative viability (LU99A; first compound 0.3162 µM) was 0.958 and the relative viability (LU99A; first compound 1 µM) was 0.635. It also gave a relative viability (LXF-289; first compound 0.01 µM) of 0.322, a relative viability (LXF-289; first compound 0.03162 µM) of 0.476 and a relative viability (LXF-289; first compound 0.1 µM) of 0.486. It also gave a relative viability (LXF-289; first compound 0.3162 µM) of 0.619, a relative viability (LXF-289; first compound 1 µM) of 0.55 and a relative viability (NCI-H1666; first compound 0.01 µM) of 0.731. For the same compound, the relative viability (NCI-H1666; first compound 0.03162 µM) was 0.907, the relative viability (NCI-H1666; first compound 0.1 µM) was 0.924 and the relative viability (NCI-H1666; first compound 0.3162 µM) was 0.824. It also gave a relative viability (NCI-H1666; first compound 1 µM) of 0.71, a relative viability (NCI-H1975; first compound 0.01 µM) of 0.427 and a relative viability (NCI-H1975; first compound 0.03162 µM) of 0.391. The relative viability (NCI-H1975; first compound 0.1 µM) was 0.439, the relative viability (NCI-H1975; first compound 0.3162 µM) was 0.396 and the relative viability (NCI-H1975; first compound 1 µM) was 0.266. The relative viability (NCI-H2085; first compound 0.01 µM) was 0.602, the relative viability (NCI-H2085; first compound 0.03162 µM) was 0.693 and the relative viability (NCI-H2085; first compound 0.1 µM) was 0.672. For the same compound, the relative viability (NCI-H2085; first compound 0.3162 µM) was 0.743, the relative viability (NCI-H2085; first compound 1 µM) was 0.702 and the relative viability (NCI-H2126; first compound 0.01 µM) was 0.562. For the same compound, the relative viability (NCI-H2126; first compound 0.03162 µM) was 0.628, the relative viability (NCI-H2126; first compound 0.1 µM) was 0.656 and the relative viability (NCI-H2126; first compound 0.3162 µM) was 0.789. For the same compound, the relative viability (NCI-H2126; first compound 1 µM) was 0.741, the relative viability (NCI-H23; first compound 0.01 µM) was 0.329 and the relative viability (NCI-H23; first compound 0.03162 µM) was 0.376. It also gave a relative viability (NCI-H23; first compound 0.1 µM) of 0.296, a relative viability (NCI-H23; first compound 0.3162 µM) of 0.331 and a relative viability (NCI-H23; first compound 1 µM) of 0.284. It also gave a relative viability (NCI-H2405; first compound 0.01 µM) of 0.806, a relative viability (NCI-H2405; first compound 0.03162 µM) of 0.777 and a relative viability (NCI-H2405; first compound 0.1 µM) of 0.808. The relative viability (NCI-H2405; first compound 0.3162 µM) was 0.765, the relative viability (NCI-H2405; first compound 1 µM) was 0.487 and the relative viability (NCI-H3122; first compound 0.01 µM) was 0.451. It also gave a relative viability (NCI-H3122; first compound 0.03162 µM) of 0.427, a relative viability (NCI-H3122; first compound 0.1 µM) of 0.442 and a relative viability (NCI-H3122; first compound 0.3162 µM) of 0.415. For the same compound, the relative viability (NCI-H3122; first compound 1 µM) was 0.434, the relative viability (NCI-H322M; first compound 0.01 µM) was 0.813 and the relative viability (NCI-H322M; first compound 0.03162 µM) was 0.789. It also gave a relative viability (NCI-H322M; first compound 0.1 µM) of 0.801, a relative viability (NCI-H322M; first compound 0.3162 µM) of 0.783 and a relative viability (NCI-H322M; first compound 1 µM) of 0.457. For the same compound, the relative viability (RERF-LC-KJ; first compound 0.01 µM) was 0.743, the relative viability (RERF-LC-KJ; first compound 0.03162 µM) was 0.793 and the relative viability (RERF-LC-KJ; first compound 0.1 µM) was 0.962. It also gave a relative viability (RERF-LC-KJ; first compound 0.3162 µM) of 0.845, a relative viability (RERF-LC-KJ; first compound 1 µM) of 0.611 and a relative viability (SK-LU-1; first compound 0.01 µM) of 0.609. The relative viability (SK-LU-1; first compound 0.03162 µM) was 0.782, the relative viability (SK-LU-1; first compound 0.1 µM) was 0.49 and the relative viability (SK-LU-1; first compound 0.3162 µM) was 0.281. The relative viability (SK-LU-1; first compound 1 µM) was 0.204, the relative viability (SW 1573; first compound 0.01 µM) was 0.565 and the relative viability (SW 1573; first compound 0.03162 µM) was 0.523. For the same compound, the relative viability (SW 1573; first compound 0.1 µM) was 0.482, the relative viability (SW 1573; first compound 0.3162 µM) was 0.324 and the relative viability (SW 1573; first compound 1 µM) was 0.172. For the same compound, the relative viability (SW 900; first compound 0.01 µM) was 0.402, the relative viability (SW 900; first compound 0.03162 µM) was 0.477 and the relative viability (SW 900; first compound 0.1 µM) was 0.551. The relative viability (SW 900; first compound 0.3162 µM) was 0.481 and the relative viability (SW 900; first compound 1 µM) was 0.451.
